Experiment: Neutrophils' apoptosis versus necrosis, Annexin V/PI flow cytometry
Assay type: cell-based, human
Details: human; 50 μM; representative plot, Figure 2; read-out: Q2-LL, viable cells (AV−/PI−)
Protocol: The effect of the compounds under study on neutrophil viability was evaluated using flow cytometry. This assessment involved staining with Annexin V (AV) and propidium iodide (PI) from the BD Pharmingen™ FITC Annexin V Apoptosis Detection Kit, following the manufacturer’s protocol. […] Afterwards, the content of each well was transferred to a conical microtube and centrifuged at 400× g, at 20 °C, for 5 min. The neutrophils’ pellets were resuspended in PBS and centrifuged again under the previous conditions. The supernatant was removed, and the solution of Annexin V and PI from the kit was added, resuspending the pellet. The neutrophils were incubated in the dark at room temperature for 15 min and then diluted (dilution factor = 6) with the diluted binding buffer. […] In the flow cytometer, the fluorescence signal of at least 10,000 neutrophils per sample was collected in logarithmic mode and followed in channels 1 and 3. A polygon gate, corresponding to the neutrophil’s population, was drawn according to the light-scattering properties of neutrophils in a forward versus scatter plot. Thus, debris and other blood cells were unaccounted for in the samples. The green fluorescence corresponding to Annexin V was monitored in channel 1 and plotted as a histogram of FL1 staining, whereas the fluorescence corresponding to PI was monitored in channel 3 and plotted in the same histogram as FL3 staining. Neutrophils’ cell death was expressed as a relative percentage of viable, apoptotic, late apoptotic, and necrotic cells compared to a negative control (untreated cells).
The eﬀect of the compounds under study on neutrophil viability was evaluated using ﬂow cytometry.
This assessment involved staining with Annexin V (AV) and propidium iodide (PI) from the BD Pharmingen™ FITC Annexin V Apoptosis Detection Kit, following the manufacturer's protocol. Neutrophils (1 x10^6 cells/mL) were incubated in a 24-well plate in the dark at 37 °C for 45 minutes with the positive control (Triton X-100, […]
Afterwards, the content of each well was transferred to a conical microtube and centrifuged at 400g, at 20 °C, for 5 minutes. The neutrophils’ pellets were resuspended in PBS and centrifuged again under the previous conditions. The supernatant was removed, and the solution of Annexin V and PI from the kit was added, resuspending the pellet. The neutrophils were incubated in the dark at room temperature for 15 minutes and then diluted (dilution factor = 6) with the diluted binding buﬀer. The measurements were performed in a n Accuri C6 ﬂow cytometer (BD, Becton, Dickinson and Company, Franklin Lakes, NJ, USA), and the results were treated with BD Accuri™ C6 software. In the ﬂow cytometer, the ﬂuorescence signal of at least 10,000 neutrophils per sample was collected in logarithmic mode and followed in channels 1 and 3. A polygon gate, corresponding to the neutrophil’s population, was drawn according to the light-scattering properties of neutrophils in a forward vs scatter plot. Thus, debris and other blood cells were unaccounted for in the samples.
The green ﬂuorescence corresponding to Annexin V was monitored in channel 1 and plotted as a histogram of FL1 staining, whereas the ﬂuorescence corresponding to PI was monitored in channel 3 and plotted in the same histogram as FL3 staining. Neutrophils’ cell death was expressed as a relative percentage of viable, apoptotic, late apoptotic, and necrotic cells compared to a negative control (untreated cells). […]

CCCCCCCCCCCC(=O)OCC(CO)OC1OC(COP(=O)(OCCN)OCCN)C(O)C(O)C1O (stereo not shown) [Compound 1h, 2-(6-(bis(2-Aminoethoxy))phosphoryl)galactopyranosyl-3-hydroxypropyl dodecanoate] gave a viability at 45 min, 50 µM of 53%.
